According to patent US7806924B2 (Cordis Corporation, priority 2004, dated 2010):
Blank lines part the entries; values can stand above or below the compound they belong to.

Key:
[1] = tested on: human coronary artery smooth muscle cell proliferation; assay: In vitro cell culture study of coronary artery smooth muscle cell proliferation; assay type: cell-based
Text: FIG. 51 is a graph of the inhibition of coronary artery smooth muscle cells by trichostatin A in a cell culture study.

tumor cell lines = conditions: cited from earlier work
[2] = tested on: human coronary artery smooth muscle cells; assay: Anti-proliferative activity in non-synchronized cultured human coronary artery smooth muscle cells stimulated with two percent fetal bovine serum; assay type: cell-based; conditions: for effect on the anti-proliferative activity of rapamycin (shift of the rapamycin dose response curve): added to cells treated with rapamycin
Text: The multiple curves represent various concentrations of mycophenolic acid ranging from zero to one thousand nanomolar concentrations.
FIG. 58 illustrates, in graphical format, the anti-proliferative activity of cladribine in non-synchronized cultured human coronary artery smooth muscle cells stimulated with two percent fetal bovine serum.
The multiple curves represent various concentrations of cladribine ranging from zero to nine hundred nanomolar concentrations.

[3] = In vivo release kinetics of rapamycin and mycophenolic acid, porcine pharmacokinetics studies
Text: The topcoat is two hundred micro grams.

[4] = tested on: human smooth muscle cells; assay: Cladribine Example: PDGF-stimulated proliferation, cell count on day six, smooth muscle cells; assay type: cell-based; conditions: from the IC50 values
Description: To assess the ability of cladribine to prevent cell proliferation, human smooth muscle or endothelial cells (Clonetics, Walkersville, Md.) were seeded at a density of 2000 cells/cm^2 (approximately 3600 cells/well) into each well of 12-well plates and cultured with 1.5 ml of growth medium containing five percent fetal calf serum (FCS). After twenty-four hours, the growth medium was changed and fresh medium containing 10 ng/ml platelet-derived growth factor AB (PDGF AB; LIFE Technologies), as well as various concentrations of cladribine (0.001-10,000 nM) were added with triplicate wells. Medium was replaced with fresh cladribine-containing medium after three days. On day six, cells were detached by trypsinization to yield a cell suspension, lightly centrifuged to pellet and then counted manually using a Neubauer hemocytometer system. Cell viability was assessed by trypan blue exclusion.

[5] = In vivo release kinetics of rapamycin and cladribine, porcine pharmacokinetics studies; design: species or system Yorkshire pigs; conditions: Bx Velocity stents, FIG. 63 compared to FIG. 62
Text: (§1) The basecoat is applied to Bx Velocity® stents and implanted into Yorkshire pigs.
as §1

Compound: CC(/C=C/C(=O)NO)=C\[C@@H](C)C(=O)c1ccc(N(C)C)cc1 [trichostatin A]
inhibition of human coronary artery smooth muscle cell proliferation [1]: completely inhibit | IC50 ([1]; read-out: anti-proliferative IC50): ~6 nM | anti-proliferative IC50's (tumor cell lines): low nM range

Compound: COc1c(C)c2c(c(O)c1C/C=C(\C)CCC(=O)O)C(=O)OC2 [mycophenolic acid]
effect on the anti-proliferative activity of rapamycin (shift of the rapamycin dose response curve) [2]: potentiates | in vivo release from EVA/BMA basecoat (with or without BMA topcoat) ([3]; 180 micro grams rapamycin, 180 micro grams mycophenolic acid, 240 micro grams EVA/BMA): elutes more completely over a shorter duration than the rapamycin

Compound: CO[C@H]1C[C@@H]2CC[C@@H](C)[C@@](O)(O2)C(=O)C(=O)N2CCCC[C@H]2C(=O)O[C@H]([C@H](C)C[C@@H]2CC[C@@H](O)[C@H](OC)C2)CC(=O)[C@H](C)/C=C(\C)[C@@H](O)[C@@H](OC)C(=O)[C@H](C)C[C@H](C)/C=C/C=C/C=C/1C [Rapamycin, rapamycin]
in vivo release rate from PVDF basecoat with PVDF topcoat ([3]; six hundred micro grams basecoat, two hundred micro grams topcoat): slower release rate than that of mycophenolic acid

in vivo elution from EVA/BMA basecoat with BMA topcoat [5]: elutes more rapidly than rapamycin
Compound: Nc1nc(Cl)nc2c1ncn2[C@H]1C[C@H](O)[C@@H](CO)O1 [cladribine, 2-chlorodeoxyadenosine]
inhibition of human coronary artery smooth muscle cell proliferation ([2]; FIG. 58): completely inhibits | effect on the anti-proliferative activity of rapamycin (shift of the rapamycin dose response curve) [2]: potentiate | potency as inhibitor of smooth muscle cells relative to endothelial cells [4]: approximately twice
